Measurements taken from BindingDB's records for doi:10.1016/s0960-894x(99)00042-6 (1999).

Experiment: Inhibitory activity against beta-glucosidase of sweet almond

C[C@@H]1NC[C@@H](CO)[C@@H](O)[C@@H]1O [5-Hydroxymethyl-2-methyl-piperidine-3,4-diol]
Ki: 2100 nM
